Data reported in PMC6844378, “Structure activity relationship studies on Amb639752: toward the identification of a common pharmacophoric structure for DGKα inhibitors” (Journal of Enzyme Inhibition and Medicinal Chemistry, 2019).

Assays:
DGKα = DGKα (Homo sapiens, UniProt P23743); experiment: DGK assay on OST-DGKα enriched MDCK homogenates; assay type: biochemical; design: expressed in transfected cells; host or cells: MDCK cells (vector-infected, doxycycline-induced), crude homogenate; settings: for remaining activity at 100 µM: percentage of residual DGKα activity compared to DMSO control, OST-DGKα overexpressing cell lysates, saturating DAG and ATP, read-out: Residue activity at 100 µM; for IC50: residual OST-DGKα activity at 0.1, 1.0, 10.0 and 100.0 µM
DGKα, sequence (P23743 whole entry): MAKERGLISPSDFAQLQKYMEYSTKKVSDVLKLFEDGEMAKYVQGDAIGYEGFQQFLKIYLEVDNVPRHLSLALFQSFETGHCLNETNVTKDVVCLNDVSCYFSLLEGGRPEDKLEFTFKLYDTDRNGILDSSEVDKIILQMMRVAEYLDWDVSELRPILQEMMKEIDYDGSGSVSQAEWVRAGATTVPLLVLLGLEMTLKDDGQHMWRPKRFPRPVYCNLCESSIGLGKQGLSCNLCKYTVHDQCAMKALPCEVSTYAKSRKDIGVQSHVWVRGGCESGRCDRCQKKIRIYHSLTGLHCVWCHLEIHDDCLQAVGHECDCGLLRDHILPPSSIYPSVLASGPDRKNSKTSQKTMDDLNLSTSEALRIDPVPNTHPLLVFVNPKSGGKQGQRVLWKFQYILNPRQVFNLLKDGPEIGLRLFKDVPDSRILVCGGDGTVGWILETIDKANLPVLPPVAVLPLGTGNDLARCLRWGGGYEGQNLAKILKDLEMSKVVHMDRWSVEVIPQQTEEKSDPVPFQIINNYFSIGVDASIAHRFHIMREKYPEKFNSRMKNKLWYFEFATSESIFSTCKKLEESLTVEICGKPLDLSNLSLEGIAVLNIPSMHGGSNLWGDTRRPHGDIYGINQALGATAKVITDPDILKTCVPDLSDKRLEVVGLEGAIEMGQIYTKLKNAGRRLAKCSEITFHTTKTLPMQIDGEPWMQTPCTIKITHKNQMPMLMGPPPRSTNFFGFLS
Procedure: Madin-Darby canine kidney (MDCK) cells stably expressing One Strep Tag DGKα (OST-DGKα) were prepared by infecting MDCK cells with a vector expressing an inducible OST tagged DGKα constructs. MDCK cells infected with empty vector were used as controls. MDCK cells were cultured in MEM (minimal essential medium) with 5% FBS (foetal bovine serum) and 1% antibiotic–antimycotic solution. Routinely, cells were splitted every 3–4 days with trypsin–EDTA 0.25% in standard 100 mm dishes.
Large cultures of MDCK cells for enzyme preparation were done by plating 5 × 10^6 cells in 245 mm^2 dishes. Once they reached nearly 70% confluence, cells were treated with doxycycline (1 µg/mL, two days). […] Cells were collected with a rubber scraper, homogenised by passing them through a 29 G-needle syringe 20 times and stored in aliquots at –80 °C. Presence of OST-DGKα was confirmed by western blotting and enzyme assay, transduced DGKα has an activity >100 folds the endogenous DGK.
Essentionally, the same procedure was followed as reported previously in Velnati et al.[9] In brief, DGK activity was assayed by measuring initial velocities (5 min at 27 °C) in presence of saturating substrate concentrations. Reaction conditions: 0.9 µg/µL 1,2-dioleoyl-sn-glycerol, 5 mM ATP, 0.01 µCi/µL [γ^32P]-ATP, 1 mM sodium orthovanadate, 10 mM MgCl2, 1.2 mM EGTA in 7.5 mM Hepes pH 8[12]. Reaction mixture is assembled mixing enzyme (24.5 µL of homogenate), 100× inhibitor or DMSO (0.5 µL), 5× ATP solution (10 µL of 25 mM ATP, 0.05 µCi/µL [γ^32P]-ATP (Perkin-Elmer, Milan, Italy), 5 mM sodium orthovanadate, 50 mM MgCl2), and 3.3× DAG solution (15 µL of 3 µg/µL 1,2-dioleoyl-sn-glycerol resuspended by sonication in 4 mM EGTA in 25 mM Hepes pH 8). The reaction was stopped after 5 min by adding 200 µL of freshly prepared 1 M HCl and lipid was extracted by adding 200 µL of CH3OH:CHCl3 1:1 solution and vortexing for 1 min. The two phases were separated by centrifugation (12,000 RCF for 2 min). Twenty-five microlitres of the lower organic phase was spotted in small drops on silica TLC plates. TLC was run 10 cm and dried before radioactive signals were detected by GS-250 molecular imager and was quantified by quantity one (Bio-Rad, Hercules, CA) software assuring the absence of saturated spots.
Percentage residual activity was calculated as follows: (OST-DGKα homogenate with inhibitor – vector homogenate)/(OST-DGKα homogenate with DMSO – vector homogenate)×100.
Data for the screen on OST-DGKα homogenates are the mean of duplicates. The compounds showing inhibitory activity in this assay were tested >4 times and the mean ± SEM is reported.
To calculate IC50 values of active inhibitors, the inhibitor activity was measured at least three times at 0.1, 1.0, 10.0, and 100.0 µM concentration. Data were analysed using [inhibitor] vs. normalised response parameters with least square [ordinary] curve fitting method in GraphPad PRISM 8.0 software (GraphPad Software, La Jolla, CA) mentioning 95% confidence interval and IC50 values always greater than 0.0. […] In all the experiments, the data were normalised with the controls.
Each inhibitor was tested in duplicate at least once, and DGKα activity was expressed as percentage of residual DGKα activity compared to DMSO control in the same assay. Assay uses OST-DGKα overexpressing cell lysates in presence of saturating exogenous DAG and ATP. We considered R59022 (commercially available) and the lead compound Amb63975230 as our reference molecules.
To measure the inhibitor potency, we determined the IC50 values for the compounds that resulted active when tested at 100 µM by measuring the residual OST-DGKα activity over a dose range of inhibitor concentrations (0.1 µM, 1.0 µM, 10.0 µM, and 100.0 µM).

SAP-deficient T cells = experiment: RICD assay in SAP silenced T cells; assay type: cell-based, human; settings: 10 µM, 30 min pre-treatment; OKT3 10 ng/mL, 24 h
Procedure: PBL were isolated from healthy anonymous human donors by Ficoll-Paque PLUS (GE Healthcare, Chicago, IL) density gradient centrifugation, washed, and resuspended at 2 × 10^6 cell/mL in RPMI-GlutaMAX containing 10% heat inactivated FCS, 2 mM glutamine, and 100 U/mL of penicillin and streptomycin. T cells were activated with 1 µg/mL anti-CD3 (UCHT1) and anti-CD28 (clone CD28.2) antibodies. After three days, activated T cells were washed and cultured in medium additionated of 100 IU/mL rhIL-2 (Peprotech, Rocky Hill, NJ) at 1.2 × 10^6 cells/mL for ≥7 days by changing media for every 2–3 days.
Activated human PBLs were transfected with 200 pmol of siRNA oligonucleotides specific for the target protein (Stealth Select siRNA; Life Technologies, Carlsbad, CA) or a non-specific control oligo (Life Technologies, Carlsbad, CA). Transient transfections were performed using Amaxa nucleofector kits for human T cells (Lonza, Basel, Switzerland) and the Amaxa Nucleofector II or 4D systems (programmes T-20 or EI-115). Cells were cultured in IL-2 (100 IU/mL) for four days to allow target gene knockdown. Knockdown efficiency was periodically evaluated by Western blotting.
To test restimulation induced cell death, activated T cells (10^5 cells/well) were plated in triplicate in 96-well round-bottom plate and treated with anti-CD3 (clone OKT3) (10 ng/mL) in RPMI-GlutaMAX supplemented with 100 IU/mL rhIL-2 for 24 h. In these assays, inhibitors (10 µM) were added 30 min before the restimulation with OKT3. 24 h after treatment, cells were stained with 20 ng/mL propidium iodide and collected for a constant time of 30 s per sample on Attune Nxt Flow Cytometer (Thermo Fisher Scientific, Waltham, MA). Cell death is expressed as % cell loss and calculated as: % cell loss=(1−(number of viable cells in sample/number of viable cells in control)×100)
Results were expressed as mean ± standard error of the mean (SEM). We always compared controls and SAP silenced lymphocytes from the same donors as there is a large individual variability in RICD sensitivity.
To evaluate inhibitor efficacy in physiological context, we modelled XLP-1 by silencing SAP in primary peripheral blood T lymphocytes (PBLs) and restimulating them with anti-CD3 antibody (OKT3 10 ng/mL, 24 h). We pre-treated the cells with the indicated inhibitors for 30 min at a concentration of 10 µM[8].
Figure 9. DGKα inhibitors partially restores apoptosis in SAP deficient lymphocytes. […] After 4 days, the cells were restimulated with CD3 agonist OKT3 (10 ng/mL) in presence of respective inhibitor. Vehicle (DMSO) was used as control. Twenty-four hours later, the % of cell loss was evaluated by PI staining. Data are the mean ± SEM of nine independent experiments performed in triplicate.

Compound	remaining activity at 100 µM (DGKα) [%]	melting point [°C]	other results
Cn1c(-c2ccccc2)c(C(=O)CN2CCN(C(=O)c3ccco3)CC2)c2ccccc21 [Amb18718]	135		
Cc1[nH]c2ccccc2c1C(=O)C(c1ccccc1)N1CCN(C(=O)c2ccco2)CC1 (centres unmarked) [Amb1926062]	88		
CCCCCCC(=O)N1CCN(CC(=O)c2c(C)[nH]c3cc(C)ccc23)CC1 [Compound 22, 1-(4-(2-(2,6-Dimethyl-1H-indol-3-yl)-2-oxoethyl)piperazin-1-yl)heptan-1-one]	48		
Cc1ccc2c(C(=O)CN3CCN(C(=O)c4ccccc4C)CC3)c(C)[nH]c2c1 [Compound 16, 1-(2,6-Dimethyl-1H-indol-3-yl)-2-(4-(2-methylbenzoyl)piperazin-1-yl)ethan-1-one]	27	200.5 to 201.6	IC50 (DGKα): 32.8 µM
O=c1c2ccccc2[nH]c(=S)n1CCC1CCC(=C(c2ccc(F)cc2)c2ccc(F)cc2)CC1 (centres unmarked) [Compound 1]			inhibitory activity on the enzyme (DGKα) (DGKα): totally devoid of inhibitory activity
Cc1ccc2c(C(=O)CN3CCN(C(=O)c4cccnc4)CC3)c(C)[nH]c2c1 [Compound 15, 1-(2,6-Dimethyl-1H-indol-3-yl)-2-(4-nicotinoylpiperazin-1-yl)ethan-1-one]	89	216.2 to 216.8	
COc1ccc2[nH]cc(C(=O)CN3CCN(C(=O)c4ccco4)CC3)c2c1 [Amb629700]	101		
O=C(CN1CCN(C(=O)c2ccco2)CC1)c1c[nH]c2ccccc12 [Compound 2]	135		
COc1ccc2[nH]c(C)c(C(=O)CN3CCN(C(=O)c4ccco4)CC3)c2c1 [Amb687392]	115		
Cc1c(C(=O)CN2CCN(C(=O)c3ccco3)CC2)c2ccccc2n1C [Amb731111]	130		
Cc1[nH]c2c(C)ccc(C)c2c1C(=O)CN1CCN(C(=O)c2ccco2)CC1 [Amb22018852]	160		
CC(C(=O)c1c[nH]c2ccccc12)N1CCN(C(=O)c2ccco2)CC1 (centres unmarked) [Amb626577]	127		
O=C(CN1CCN(C(=O)c2ccco2)CC1)c1c(-c2ccccc2)[nH]c2ccccc12 [Amb98433]	81		
Cc1ccc2c(C(=O)CN3CCN(C(=O)c4cccs4)CC3)c(C)[nH]c2c1 [Compound 14, 1-(2,6-Dimethyl-1H-indol-3-yl)-2-(4-(thiophene-2-carbonyl)piperazin-1-yl)ethan-1-one]	6		effect on RICD in control siRNA-transfected cells (SAP-deficient T cells): slightly reducing; IC50 (DGKα): 3 µM
COc1cccc(C(=O)N2CCN(CC(=O)c3c(C)[nH]c4cc(C)ccc34)CC2)c1 [Compound 17, 1-(2,6-Dimethyl-1H-indol-3-yl)-2-(4-(3-methoxybenzoyl)piperazin-1-yl)ethan-1-one]	41	209.8 to 210.4	
Cc1[nH]c2ccccc2c1C(=O)C(C)N1CCN(C(=O)c2ccccc2)CC1 (centres unmarked) [Amb37496]	114		
Cc1ccc2c(C(=O)C(C)N3CCN(C(=O)c4ccco4)CC3)c(C)[nH]c2c1 (centres unmarked) [Amb758897]	67		
Cc1ccc2c(C(=O)CN3CCN(C(=O)C4CCCC4)CC3)c(C)[nH]c2c1 [Compound 21, 2-(4-(Cyclopentanecarbonyl)piperazin-1-yl)-1-(2,6-dimethyl-1H-indol-3-yl)ethan-1-one]	39		
Cc1ccc2c(C(=O)CN3CCN(C(=O)c4ccc(F)c(F)c4)CC3)c(C)[nH]c2c1 [Compound 18, 2-(4-(3,4-Difluorobenzoyl)piperazin-1-yl)-1-(2,6-dimethyl-1H-indol-3-yl)ethan-1-one]	47	233.8 to 235	
O=C(c1c[nH]c2ccccc12)C(c1ccccc1)N1CCN(C(=O)c2ccco2)CC1 (centres unmarked) [Amb94966]	196		
COc1ccc(C(=O)N2CCN(CC(=O)c3c(C)[nH]c4cc(C)ccc34)CC2)cc1 [Compound 12, 1-(2,6-Dimethyl-1H-indol-3-yl)-2-(4-(4-methoxybenzoyl)piperazin-1-yl)ethan-1-one]	6	219.9 to 220.8	IC50 (DGKα): 3.6 µM
Cc1ccc2c(C(=O)CN3CCN(C(=O)c4ccccc4)CC3)c(C)[nH]c2c1 [Compound 8, 2-(4-Benzoylpiperazin-1-yl)-1-(2,6-dimethyl-1H-indol-3-yl)ethan-1-one]	5	213.8 to 214.3	IC50 (DGKα): 3.2 µM
COc1ccc2c(C(=O)CN3CCN(C(=O)c4ccco4)CC3)c(C)n(C)c2c1 [Amb726054]	126		
Cc1ccc2[nH]cc(C(=O)CN3CCN(C(=O)c4ccco4)CC3)c2c1 [Amb758592]	150		
Cc1ccc2c(C(=O)CN3CCN(C(=O)c4ccc(C#N)cc4)CC3)c(C)[nH]c2c1 [Compound 13, 4-(4-(2-(2,6-Dimethyl-1H-indol-3-yl)-2-oxoethyl)piperazine-1-carbonyl)benzonitrile]	14	243.9 to 244.8	IC50 (DGKα): 6.9 µM
Cc1ccc2c(C(=O)CN3CCN(C(=O)c4cccc(Cl)c4)CC3)c(C)[nH]c2c1 [Compound 19, 2-(4-(3-Chlorobenzoyl)piperazin-1-yl)-1-(2,6-dimethyl-1H-indol-3-yl)ethan-1-one]	26	222.3 to 223.5	IC50 (DGKα): 49.7 µM
